Measurements reported in patent US20230003716A1, “METHODS AND APPARATUSES FOR PATIENT-DERIVED MICROORGANOSPHERES” (Xilis, Inc., priority 2020, published 2023).
Like-named read-outs stand apart in the source and are kept apart here.

Columns and labels:
[1] = system: PDX240 cells (colorectal cancer patient derived xenograft); assay: drug response curves, traditional (bulk) organoids versus Micro-Organospheres, PDX240; type: cell-based, human; settings: cell viabilities after 3 days of treatment
Excerpt: In some variations, the Micro-Organospheres may be formed from cell lines grown as part of a Patient Derived Xenograft (PDX). For example, FIGS. 28A-28D illustrate Micro-Organospheres formed from cultured PDX240 cells. PDX240 cells are a Patient Derived Xenograft (PDX) tumor cell line (numbered 240 based on patient source) that were human tumors grown in immunodeficient mice (PDX) to form in vivo tumors. The xenograft tissue was extracted dissociated, and used to form Micro-Organospheres as described above. In this example a single cell was included in each Micro-Organospheres as it was formed. […] With progressive time in culture, at least some of the Micro-Organospheres show the cells dividing and forming structures.
(§1) Organoids were formed from Patient Derived Xenograft cells (including the PDX240 cells described above and a second PDX cell line, PDX19187) and were compared with Micro-Organospheres formed using the same cells. The organoids were formed using conventional techniques in which a large mass of […] in a well or dish was seeded with cells and cultured until growth was confirmed. Micro-Organospheres were generated from the traditional organoids.
(§2) Both traditional (“bulk”) organoids and the Micro-Organospheres were then treated with the same drugs (e.g., Oxaliplatin or SN38) and cell viabilities were measured after 3 days of treatment.

patient tumor = assay: actual response of the patient's tumor to drug treatment; type: in vivo, human; settings: for patient response to treatment: Example 3, treated with both Oxaliplatin and Irinotecan, after 6 months of treatment
[2] = system: Patient-Derived Micro-Organospheres (tumor biopsy); assay: drug effect screen on Patient-Derived Micro-Organospheres from a patient tumor biopsy; type: cell-based, human; settings: for percent survival of the Micro-Organospheres in the presence of the drug: Example 3, FIGS. 23B-23C, predicts drug resistance
Excerpt: The Patient-Derived Micro-Organospheres described herein may be used in a variety of different assays, and in particular may be used to determine drug formulation effects, including toxicity, on normal and/or abnormal (e.g., cancerous) tissue. For example, drug screening may include applying Micro-Organospheres into all or some wells of multi-well (e.g., a 96-well) plate. Alternatively custom plates may be used (e.g., a 10,000 micro-well array may be formed of a 100×100 wells). The Micro-Organospheres (e.g., gel droplets) may be applied into, or in some variations onto the multiple microwell arrays and incubated with culture medium. The Micro-Organospheres may be cultured over the course of 3-5 days. In some variations, on day 5, the wells (e.g., micro-reactors) may then be dosed with drug compounds, e.g., based on a set of FDA-approved anticancer drugs, to examine the effects of the drug panel. For example, the drugs texted may be based on the National Cancer Institute (Division of Cancer Treatment and Diagnosis (11)) screen, consisting of 147 agents intended to enable cancer research, drug discovery and combination drug studies. On Day 7, the Micro-Organospheres may be imaged via standard fluorescent microscopy and ranked based on drug response.
In this example, the screening assay may be automated. This may enable repeatable and automated workflow, which may increase the number of drugs screened from a few to hundreds. FIGS. 17A-17E illustrate one example of this workflow. In FIG. 17A, a tumor biopsy is taken and a plurality (e.g., >10,000) Micro-Organospheres are formed as described above (in FIG. 17A the junction region forming the Micro-Organospheres is illustrated).
In a similar set of experiments, Micro-Organospheres were generated from biopsy material (FIG. 23A), and a drug effect screen was performed using the resulting Micro-Organospheres. […] Thus, the Micro-Organospheres correlated strongly with patient response to the standard of care drugs. […]

[3] = system: PDX19187 cells (colorectal cancer); type: cell-based, human; settings: cell viabilities after 3 days of treatment
Method: as §1, §2

traditional cell line = assay: traditional (2D) tumor cell line drug assay; type: cell-based; settings: FIG. 22A; all dose ranges examined; predicts drug resistance
Excerpt: As mentioned above, the Patient-Derived Micro-Organospheres and methods of using them to screen for drug compositions may be used to accurately predict the response of a patient tumor to one or more drug therapies. […] For example, in FIG. 22A-22D, the Micro-Organospheres, but not a cell line, was able to correlate with patient response.

| SMILES | drug response curve (cell viability), bulk organoids compared with Micro-Organospheres [1] | patient response to treatment (patient tumor) | percent survival of the Micro-Organospheres in the presence of the drug [2] | other results |
| --- | --- | --- | --- | --- |
| O=c1[nH]cc(F)c(=O)[nH]1 [5-FU, Fluorouracil] | comparable responses |  |  |  |
| CCc1c2c(nc3ccc(OC(=O)N4CCC(N5CCCCC5)CC4)cc13)-c1cc3c(c(=O)n1C2)COC(=O)[C@]3(O)CC [Irinotecan] |  | no response | lack of effect |  |
| O=C1[O][Pt]2([NH][C@@H]3CCCC[C@H]3[NH]2)[O]C1=O [Oxaliplatin] |  | no response | no change in the percent survival | drug response curve (cell viability), bulk organoids compared with Micro-Organospheres ([3]; listed as Oxalipalatin): comparable response; tumor response of the patient to treatment (patient tumor; Example 2, FIGS. 22C (before) and 22D (post treatment)): responded to treatment; drug effect on traditional cell line (traditional cell line): no effect; cell survival of tumor Micro-Organospheres ([2]; Example 2, FIG. 22B, predicts drug sensitivity): significant decreases in cell survival |
| CCc1c2c(nc3ccc(O)cc13)-c1cc3c(c(=O)n1C2)COC(=O)[C@]3(O)CC [SN38, 7-Ethyl-10-hydroxy-camptothecin] | comparable responses |  |  | drug response curve (cell viability), bulk organoids compared with Micro-Organospheres [3]: comparable responses |
